In PMC7915732, “Screening of Yeast Display Libraries of Enzymatically Treated Peptides to Discover Macrocyclic Peptide Ligands” (International Journal of Molecular Sciences, 2021):

How the values were obtained:
[1] = biological target: T1, WW domains of YAP (WW-YAP) (Homo sapiens, UniProt P46937); assay: Static binding assay on peptide-Toyopearl resin, Langmuir isotherm, WW-YAP; settings: binding capacity (mg protein/mL resin), PBS pH 7.4, 1 h room temperature, Langmuir fit, average of three independent replicates ± one standard error
T1 construct: which affords the expression of the WW domains of YAP (AAs 165–271); made in house; host or cells: Rosetta E. coli
Procedure: (§1) The known WW-binding peptide sequence [sequence] […] Protein adsorption isotherms were generated by incubating the peptide-functionalized resin with soluble N-terminal YAP or WW-YAP (20 μg/mL–3 mg/mL).
(§2) The supernatants were collected and analyzed by UV spectrophotometry at 280 nm to measure the amount of unbound protein. The amount of protein adsorbed on the resin was determined via mass balance. The KD describing the binding affinity of the soluble protein to the peptide-functionalized resin was determined by fitting the adsorption data to a Langmuir isotherm:(2) q=qmax[C]/KD+[C] where q is the amount of protein adsorbed on the resin (mg protein/mL resin), [C] is the unbound concentration of protein at equilibrium (mg protein/mL solution), qmax is the maximum protein binding capacity (mg protein/mL resin), and KD is the dissociation constant (mg protein/mL solution). Equation (2) was independently fit to the data obtained from triplicate adsorption studies, and the fitted values of KD and qmax were averaged across the repeats.

N-terminal YAP (N-YAP) = biological target: T2, N-terminal YAP (N-YAP) (Homo sapiens, UniProt P46937); assay: Static binding assay on peptide-Toyopearl resin, Langmuir isotherm, N-terminal YAP; settings: binding capacity (mg protein/mL resin), PBS pH 7.4, 1 h room temperature, Langmuir fit, average of three independent replicates ± one standard error
T2 construct: which affords the expression of N-terminal YAP (AAs 1–291); made in house; host or cells: Rosetta E. coli
T2 sequence (P46937 1-291): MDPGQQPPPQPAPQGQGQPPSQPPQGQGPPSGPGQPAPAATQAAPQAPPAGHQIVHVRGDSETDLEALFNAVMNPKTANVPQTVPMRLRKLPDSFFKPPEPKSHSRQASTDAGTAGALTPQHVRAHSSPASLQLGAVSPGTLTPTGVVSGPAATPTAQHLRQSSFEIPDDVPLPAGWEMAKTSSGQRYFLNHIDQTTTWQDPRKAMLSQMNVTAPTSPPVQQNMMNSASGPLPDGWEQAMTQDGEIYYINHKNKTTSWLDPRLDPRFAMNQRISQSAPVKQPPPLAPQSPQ
Procedure: as §1, §2

T1 sequence (P46937 165-271): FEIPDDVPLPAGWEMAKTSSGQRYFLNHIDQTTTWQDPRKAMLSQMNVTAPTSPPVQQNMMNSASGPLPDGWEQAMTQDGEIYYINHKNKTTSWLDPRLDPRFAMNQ

## RYSPPPPYSSHS [PTCH peptide]
[1]
  Qmax WW-YAP (resin): 8.3 ± 0.27 mg/mL
N-terminal YAP (N-YAP)
  Qmax N-YAP (resin): 4.11 ± 0.12 mg/mL
